Measurements reported in patent US20060264442A1, “Methods for the treatment of ocular and neurodegenerative conditions in a mammal” (Allergan, Inc., priority 2005, published 2006).

What was measured:
retinal ganglion cells [1] = assay: Partial optic nerve (ON) injury model, retinal ganglion cell count; assay type: in vivo, Sprague Dawley rats; conditions: for RGC survival / protective effect: count at twelve days
Experimental: (§1) All procedures were conducted following AACUC protocols. Rats were anesthetized by intramuscular administration of Ketamine/Xylazine/Acepromazine/Saline cocktail, 5/2.5/1/1.5, milliliters respectively, at 1 ml/Kg.
Sprague Dawley rats weighing 300-350 g were used in this experiment. They were anesthetized with the above anesthetic cocktail and ON injury was applied. […] The tissues around the optic nerve were kept away from the optic nerve using jaw opening forceps. Calibrated forceps was put around the nerve about 3 to 4 mm from the globe and held for 30 seconds. The forceps were then removed, and the eyes treated with topical antibiotics at the site of incision. Drugs were then administered at selected doses via IP. Control animals received vehicle.
(§2) The effect of ON injury and elevated IOP on ganglion cells was determined by evaluating ganglion cell loss in whole mounted retinas. At the end of twelve days for ON injured and three months for COHT animals the ganglion cells were labeled by retrograde transport of Dextran Tetramethyl Rhodamine (DTMR, Molecular Probes, OR). […] A longitudinal cut (<1 mm) was made at about 3-4 mm distal from the globe. The optic nerve was sectioned and DTMR crystals were applied at the cut end. Twenty four hours after labeling the animals were euthanized and the eyes enucleated and fixed for 2 hours with 4% paraformaldehyde, then the retinas were removed and whole mounted. Cell counts were done using a Nikon microscope under fluorescent light with Rhodamine filter at 400×. Eight to sixteen regions were counted. Ganglion cell loss was calculated as percentage loss compared to unlasered control. Percent protection was calculated by comparing drug treated to vehicle treated eyes. Statistical analysis was done using two-tail student's t-test.

retinal ganglion cells [2] = assay: COHT model, retinal ganglion cell count; assay type: in vivo, Wistar rats
Experimental: (§3) Wistar rats weighing 400-475 grams were used. The rats were anesthetized and ocular hypertension was induced by laser photocoagulation of the outflow pathway (mainly episcleral and limbal veins) using a Coherent Argon Laser (Coherent Novus 2000). The number of spots was approximately 150 after two laser treatments with one week interval. IOP was measured using Tono-Pen XL (Mentor O&O). Measurements were done prior to laser treatments to determine baseline and subsequent readings were done weekly.
as §2

[3] = Chronic ocular hypertension (COHT) model, IOP measurement; assay type: in vivo, Wistar rats; conditions: topical 0.015% twice a day for 90 days, compared to vehicle treated eyes
Experimental: as §1, §3
In this model prazosin was tested after topical application of 0.015% twice a day for 90 days. […] The IOP level reached a steady state after 40 days and it was maintained for the rest of the experimental period.

[4] = COHT model, ERG evaluation of retinal function; assay type: in vivo, Wistar rats; conditions: topical 0.015% twice a day, at the end of 90 days
Experimental: as §3
Electroretinographic evaluation of the retina was done only to OHT animals. The retinal function was measured 90 days after first laser treatment and prior retinal labeling. LKC system was used with the following parameters: low and high cut filters 0.3 and 500 Hz respectively, number of runs per sample were 10, flash intensity was −30, −20, −10 and −4 dB, Notch filter was off. Data analysis including OP's extraction from flash ERG was done using the system's software and noise was filtered prior calculation. Data represents the average of 5 animals.
At the end of 90 days retinal function was measured using electroretinography (ERG). […] Similarly the oscillatory potential responses were also preserved by prazosin treatment (FIG. 6).

**Q.** With `COc1ccccc1N1CCN(CCCNc2c(C)c(=O)n(C)c(=O)n2C)CC1` [5-methyl-Urapedil, 5-methylurapadil] as the compound, how does the “RGC survival / protective effect” value (retinal ganglion cells [1]; 10 μg/kg IP) read?
**A.** no protective effect

**Q.** With `Brc1c(NC2=NCCN2)ccc2nccnc12` [Brimonidine, brimonidine] as the compound, how does the “RGC survival / protective effect” value (retinal ganglion cells [1]; 100 μg/kg IP) read?
**A.** protective action of Prazosine is similar to that of Brimonidine

**Q.** And the “RGC protection in COHT model (comparison in words)” value (retinal ganglion cells [2]; dose not given)?
**A.** comparable to what we have observed with Brimonidine

**Q.** Which “RGC survival / protective effect” value (retinal ganglion cells [1]; 10 μg/kg IP) does the source give for `COc1cc2nc(N3CCN(C(=O)c4ccco4)CC3)nc(N)c2cc1OC` [Prazosine, prazosin] here?
**A.** almost two fold increase in RGC survival

**Q.** What about the “Elevation of IOP” value [3] of the same compound?
**A.** attenuated the elevation of IOP

**Q.** What about the “ERG A and B wave amplitudes” value [4] of the same compound?
**A.** In vehicle treated animals both A and B wave amplitudes were smaller than those treated with prazosin

**Q.** And the Oscillatory potential responses [4]?
**A.** preserved

**Q.** What about the “Protection of RGC compared to vehicle treated group” value (retinal ganglion cells [2]; 0.015% topical, three months of IOP elevation) of the same compound?
**A.** 46%

**Q.** What about the RGC decrease (retinal ganglion cells [2]; 0.015% topical, three months of IOP elevation, loss compared to unlasered control) of the same compound?
**A.** 20%

**Q.** Which RGC protection (retinal ganglion cells [1]; 0.1 μg/kg IP) does the source give for `COc1cc2nc(N3CCN(C(=O)C4CCCO4)CC3)nc(N)c2cc1OC` (stereo not drawn) [Terazosine, terazosin] here?
**A.** Protection was observed

**Q.** And the RGC protection (retinal ganglion cells [1]; 1.0 μg/kg IP)?
**A.** maximum effect

**Q.** What about the “RGC survival / protective effect” value (retinal ganglion cells [1]; 10 μg/kg IP) of the same compound?
**A.** no effect
